“Also recorded” adds a separate entry of the source.
Experiments:
[1] = tested on: MC38 colon carcinoma tumors; assay: MC38 colon carcinoma syngeneic mouse tumor model, tumor growth; type: in vivo, C57 BL/6 mice; conditions: established MC38 tumors; ganetespib 125 mg/kg days 8 and 15; αPD-L1 200 μg days 8, 12, 15; FIG. 1A
Experimental: Such findings support the premise that targeting HSP90 may represent a complementary and therapeutically advantageous approach together with immune checkpoint blockade for augmenting antitumor immune responses.
The HSP90 inhibitor ganetespib potentiates the antitumor efficacy of PD-L1 antibody treatment in syngeneic mouse tumor models. In FIG. 1 (a), C57 BL/6 mice bearing established MC38 colon carcinoma tumors (n=7/group) were treated with 200 μg IgG1 control or anti-PD-L1 antibody (αPD-L1; Sorrento Therapeutics, Inc., San Diego), either alone or in combination with 125 mg/kg ganetespib. Ganetespib was dosed on a weekly schedule (days 8 and 15), αPD-L1 was administered on days 8, 12, and 15. […] In FIG. 1 (b), C57 BL/6 mice bearing established B16 melanoma tumors (n=3/group) were dosed using a similar regimen as in (a).

MC38 tumors = assay: Gene expression array (NanoString) of MC38 tumors after a ganetespib dose; type: in vivo, mice
Experimental: Mice with MC38 tumors received a dose of ganetespib. Tumors (3 per time point) were removed from the animals at 4, 24, 48 and 120 hr post dose. RNA was prepared and analyzed for gene expression using NanoString. Expression levels of genes were made by comparing drug treated tumors with vehicle-treated tumors.

HCC827 cells = assay: MHC Class I surface expression on HCC827 cells, flow cytometry; type: cell-based; conditions: overnight incubation, FIG. 7A
Experimental: HCC827 cells were incubated with DMSO, Interferon gamma (IFNγ) or ganetespib and stained with anti MHC Class 1 antibodies and examined by flow cytometry to determine the number of molecules per cell surface.

MC38 cells = assay: MHC Class I (H2-K) surface expression on MC38 cells, flow cytometry; type: cell-based, mouse; conditions: overnight, 100 nM ganetespib (sublethal), FIG. 7B
Experimental: MC38 cells were incubated overnight with media+0.01% DMSO (dashed red line, light blue line), or media with 100 nM ganetespib (dotted red line, dark blue line). Cells were stained with an isotype control (red lines), or antibody to mouse H2-K (blue lines).

MC38 tumor cells = assay: Chemokine production by MC38 tumor cells in vitro; type: cell-based, mouse; conditions: overnight, sublethal ganetespib with 300 U/ml TNFα, FIG. 8
Experimental: (§1) MC38 or CT26 tumor cells were incubated with the indicated concentrations of ganetespib as shown in FIG. 8 in combination with 300 U/ml TNFα overnight and supernatants were collected and assayed for chemokines.

CT26 tumor cells = assay: Chemokine production by CT26 tumor cells in vitro; type: cell-based; conditions: overnight, sublethal ganetespib with 300 U/ml TNFα, FIG. 8
Experimental: as §1

[2] = within 48-120 hr after in vivo treatment, versus vehicle-treated tumors

CC(C)c1cc(-c2nnc(O)n2-c2ccc3c(ccn3C)c2)c(O)cc1O [ganetespib, 3-(2,4-DIHYDROXY-5- ISOPROPYL-PHENYL)-4-(1- METHYL-INDOL-5-YL)-5- HYDROXY-[1,2,4] TRIAZOLE (GANETESPIB)]
tumor growth suppression / antitumor efficacy [1]: comparable degree of tumor growth suppression to that seen following selective anti-PD-L1 antibody treatment
influx of immune cells into tumors (gene expression) (MC38 tumors; after a single ganetespib administration, FIG. 6): influx of T cells, B cells and NK cells into tumors
chemokines in tumor (gene expression) (MC38 tumors; after in vivo treatment, versus vehicle-treated tumors): Increases in a large number of chemokines
NK cells and CD8 cells in tumor (gene expression) (MC38 tumors; [2]): increased numbers of NK cells and CD8 cells
Treg cells in tumor (gene expression) (MC38 tumors; [2]): decreased Treg cells
number of HLA-ABC molecules/cell (HCC827 cells): doubled
major histocompatibility antigen (MHC Class I, H2-K) expression (MC38 cells): upregulates major histocompatibility antigens, especially MHC Class I
chemokine production (CCL2, CCL5, CXCL10) (MC38 tumor cells): induces chemokine production; also recorded: provokes production of chemokines by the tumor cells (CCL2, CCL5, CXCL10)
chemokine production (CCL2, CCL5, CXCL10) (CT26 tumor cells): induces chemokine production; also recorded: provokes production of chemokines by the tumor cells (CCL2, CCL5, CXCL10)
